Laboratory results as given in patent US12545659B2, “IRAK degraders and uses thereof” (Kymera Therapeutics, Inc., priority 2019, dated 2026).

molecular target: T1, IRAK4 (Homo sapiens, UniProt Q9NWZ3); experiment: IRAK4 MSD Degradation in OCI-LY10; format: cell-based; conditions: OCI-LY10 cells, 4 hrs incubation, read-out: IRAK4 degradation in OCI-LY10 at 4 hrs: DC50
T1 construct: endogenous in cells; host or cells: OCI-LY10
T1 sequence (Q9NWZ3 1-460): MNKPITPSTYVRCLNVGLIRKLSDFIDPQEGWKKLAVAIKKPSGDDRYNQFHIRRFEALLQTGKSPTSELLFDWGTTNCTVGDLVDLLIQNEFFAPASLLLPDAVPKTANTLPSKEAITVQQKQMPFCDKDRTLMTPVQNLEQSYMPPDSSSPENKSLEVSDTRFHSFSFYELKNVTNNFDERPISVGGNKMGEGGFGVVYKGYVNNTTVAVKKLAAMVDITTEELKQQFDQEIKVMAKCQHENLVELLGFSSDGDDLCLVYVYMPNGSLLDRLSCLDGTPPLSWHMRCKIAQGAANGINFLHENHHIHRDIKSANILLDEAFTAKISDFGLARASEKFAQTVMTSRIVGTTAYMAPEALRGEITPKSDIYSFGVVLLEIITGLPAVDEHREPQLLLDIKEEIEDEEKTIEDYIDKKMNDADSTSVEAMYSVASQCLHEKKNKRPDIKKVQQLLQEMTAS
Method: Degradation of IRAK4 in OCI-LY10 was quantitatively measured using Meso Scale Discovery technology. […] Compounds were then added to the assay plates with a final top concentration of 1 to 10 μM in a 1:3 dilution series with total of 8 doses. The assay plates were then incubated for 4 to 24 hours at 37° C. under 5% C02. […] To prepare MSD assay plates (Meso Scale Discovery Catalog number L15XA-3), the plates were coated with […] capture antibody (mouse Anti-IRAK4 antibody [2H9], ab119942) in PBS, at 40 μL/well. […] Cell lysates were then added to MSD assay plates and the plates were incubated at room temperature for 1 hour. The plates were then washed 3 times with 150 μL/well TBST buffer and 25 μL/well primary detection antibody (rabbit Anti-IRAK4 antibody [Y279], from Abcam. Catalog number ab32511, 1 μg/mL). The assay plates were then incubated at room temperature for 1 hour, washed 3 times with 150 μL/well TBST buffer and 25 μL/well secondary detection antibody, SULFO-TAG anti-rabbit antibody were added (anti rabbit antibody from Meso Scale Discovery, Catalog number R32AB-1, 1 μg/mL). The assay plates were then incubated at room temperature for 1 hour, washed 3 times with 150 μL/well TBST buffer, and 150 μL/well MSD reading buffer (Meso Scale Discovery catalog number R92TC-2) was added. The plates were then analyzed by a MSD reader (Meso Scale Discovery, Model Quick Plex SQ 120). The data was then analyzed by software Prism 7.0 from GraphPad and the dose-depended IRAK4 degradation were fit using a three-parameter logistic equation to calculate DC50.
The letter codes for IRAK4 […] include: A (<0.05 μM); B (0.05-0.1 μM); C (0.1-0.5 μM); D (0.5-1.0 μM); and E (>1.0 μM).

| DC50 | Structure (SMILES) |
| --- | --- |
| 50 to 100 nM | Cn1c(=O)n(C2CCC(=O)NC2=O)c2cccc(CCC3CC4(CCN(C[C@H]5CC[C@H](n6cc7cc(NC(=O)c8cccc(OC(F)(F)F)n8)c(C(C)(C)O)cc7n6)CC5)CC4)C3)c21 (stereo partly shown) [I-108] |
| < 50 nM | Cc1nc(C(=O)Nc2cc3cn([C@H]4CC[C@H](CN5CCC6(CC5)CC(CCc5cccc7c5n(C)c(=O)n7C5CCC(=O)NC5=O)C6)CC4)nc3cc2C(C)(C)O)ccc1F (stereo partly shown) [I-206] |
| 50 to 100 nM | COc1cc2nn([C@H]3CC[C@H](CN4CCC5(CC4)CC(CNc4cccc6c4n(C)c(=O)n6C4CCC(=O)NC4=O)C5)CC3)cc2cc1NC(=O)c1cccc(C(F)(F)F)n1 (stereo partly shown) [I-163] |
| 50 to 100 nM | Cn1c(=O)n(C2CCC(=O)NC2=O)c2cccc(CCOC3CCN(C[C@H]4CC[C@H](n5cc6cc(NC(=O)c7cccc(C(F)(F)F)n7)c(C(F)F)cc6n5)CC4)CC3)c21 (stereo partly shown) [I-266] |
| < 50 nM | COc1cc2nn([C@H]3CC[C@H](CN4CCC(CCNc5cccc6c5n(C)c(=O)n6C5CCC(=O)NC5=O)CC4)CC3)cc2cc1NC(=O)c1ccc(F)c(C)n1 (stereo partly shown) [I-144] |
| < 50 nM | COc1cc2nn([C@H]3CC[C@H](CN4CCC5(CC4)CC(Nc4cccc6c4n(C)c(=O)n6C4CCC(=O)NC4=O)C5)CC3)cc2cc1NC(=O)c1cccc(C(F)(F)F)n1 (stereo partly shown) [I-162] |

Continued, molecule first:

| Structure (SMILES) | DC50 |
| --- | --- |
| Cn1c(=O)n(C2CCC(=O)NC2=O)c2cccc(CN3CC4(CN(Cc5ccc(-n6cc7cc(NC(=O)c8cccc(C(F)(F)F)n8)c(C(C)(C)O)cc7n6)cc5)C4)C3)c21 (stereo not shown) [I-49] | 50 to 100 nM |
| CN(CCO[C@H]1C[C@H](Cc2cccc3c2n(C)c(=O)n3C2CCC(=O)NC2=O)C1)C[C@H]1CC[C@H](n2cc3cc(NC(=O)c4cccc(C(F)(F)F)n4)c(C(F)F)cc3n2)CC1 (stereo partly shown) [I-309] | 50 to 100 nM |
| COc1cc2nn([C@H]3CC[C@H](CN4[C@@H]5CC[C@H]4CN(CCc4cccc6c4n(C)c(=O)n6C4CCC(=O)NC4=O)C5)CC3)cc2cc1NC(=O)c1cccc(C(F)(F)F)n1 (stereo partly shown) [I-133] | < 50 nM |
| COc1cc2nn([C@H]3CC[C@H](CN(C)CC#Cc4cccc5c4n(C)c(=O)n5C4CCC(=O)NC4=O)CC3)cc2cc1NC(=O)c1cccc(C(F)(F)F)n1 (stereo partly shown) [I-134] | 50 to 100 nM |
| CN(C[C@H]1CC[C@H](n2cc3cc(NC(=O)c4cccc(C(F)(F)F)n4)c(C(F)F)cc3n2)CC1)C1CCN(c2ccc3c(c2)n(C)c(=O)n3C2CCC(=O)NC2=O)CC1 (stereo partly shown) [I-106] | < 50 nM |
| Cn1c(=O)n(C2CCC(=O)NC2=O)c2cccc([C@H]3CC[C@H](N(C)C[C@H]4CC[C@H](n5cc6cc(NC(=O)c7cccc(C(F)(F)F)n7)c(C(F)F)cc6n5)CC4)CC3)c21 (single isomer, unassigned) [I-164, N-[6-(difluoromethyl)-2-[4-[[[4-[1-(2,6-dioxo-3-piperidyl)-3-methyl-2-oxo-benzimidazol-4-yl]cyclohexyl]-methyl-amino]methyl]cyclohexyl]indazol-5-yl]-6-(trifluoromethyl)pyridine-2-carboxamide] | < 50 nM |
| Cn1c(=O)n(C2CCC(=O)NC2=O)c2ccc(C3CCN(C[C@H]4CC[C@H](n5cc6cc(NC(=O)c7cccc(C(F)(F)F)n7)c(C(F)F)cc6n5)CC4)CC3)cc21 (stereo partly shown) [I-261] | < 50 nM |

same assay, conditions: OCI-LY10 cells, 24 hrs incubation, read-out: IRAK4 degradation in OCI-LY10 at 24 hrs: DC50

| DC50 | Structure (SMILES) |
| --- | --- |
| 50 to 100 nM | CC(C)(O)c1cc2nn([C@H]3CC[C@H](CN4CCC5(CC4)CC(CCNc4cccc6c4C(=O)N(C4CCC(=O)NC4=O)C6=O)C5)CC3)cc2cc1NC(=O)c1cccc(C(C)(F)F)n1 (stereo partly shown) [I-250] |
| 100 to 500 nM | CCOc1cc2nn([C@H]3CC[C@H](CN4CCC5(CC4)CC(CCNc4cccc6c4C(=O)N(C4CCC(=O)NC4=O)C6=O)C5)CC3)cc2cc1NC(=O)c1cccc(C(F)(F)F)n1 (stereo partly shown) [I-212] |
| 50 to 100 nM | CC(C)(O)c1cc2nn([C@H]3CC[C@H](CN4CCC(COCCCNc5cccc6c5C(=O)N(C5CCC(=O)NC5=O)C6=O)CC4)CC3)cc2cc1NC(=O)c1cccc(C(C)(C)F)n1 (stereo partly shown) [I-59] |
| < 50 nM | COc1cc2nn([C@H]3CC[C@H](CN4CCC5(CC4)CC(Nc4cccc6c4C(=O)N(C4CCC(=O)NC4=O)C6=O)C5)CC3)cc2cc1NC(=O)c1ccc(F)c(C)n1 (stereo partly shown) [I-224] |
| 50 to 100 nM | Cc1nc(C(=O)Nc2cc3cn([C@H]4CC[C@H](CN(C)[C@H]5CC[C@H](CNc6cccc7c6C(=O)N(C6CCC(=O)NC6=O)C7=O)CC5)CC4)nc3cc2C(C)(C)O)ccc1F (stereo partly shown) [I-308] |
| 50 to 100 nM | CC(C)(O)COc1cc2nn([C@H]3CC[C@H](CN4CCC5(CC4)CC(CCNc4cccc6c4C(=O)N(C4CCC(=O)NC4=O)C6=O)C5)CC3)cc2cc1NC(=O)c1cccc(C(C)(F)F)n1 (stereo partly shown) [I-119] |
| 50 to 100 nM | CC(C)(O)c1cc2nn([C@H]3CC[C@H](CN4CCC5(CC4)CC(Nc4cccc6c4C(=O)N(C4CCC(=O)NC4=O)C6=O)C5)CC3)cc2cc1NC(=O)c1cccc(S(F)(F)(F)(F)F)c1 (stereo partly shown) [I-123] |
| 50 to 100 nM | COc1cc2nn([C@H]3CC[C@H](CN4CCC5(CC4)CC(CNc4ccc6c(c4)C(=O)N(C4CCC(=O)NC4=O)C6=O)C5)CC3)cc2cc1NC(=O)c1cccc(C(F)(F)F)n1 (stereo partly shown) [I-222] |

The next lines start with the molecule.

| Structure (SMILES) | DC50 |
| --- | --- |
| COc1cc2nn([C@H]3CC[C@H](CN4CC5(CC(CCNc6cccc7c6C(=O)N([C@H]6CCC(=O)NC6=O)C7=O)C5)C4)CC3)cc2cc1NC(=O)c1cccc(C(C)(F)F)n1 [I-255, 6-(1,1-Difluoroethyl)-N-[2-[4-[[6-[2-[[2-[(3S)-2,6-dioxo-3-piperidyl]-1,3-dioxo-isoindolin-4-yl]amino]ethyl]-2-azaspiro[3.3]heptan-2-yl]methyl]cyclohexyl]-6-methoxy-indazol-5-yl]pyridine-2-carboxamide] | < 50 nM |
| COc1cc2nn([C@H]3CC[C@H](CN(C)[C@H]4CC[C@]5(CC4)C[C@@H](CNc4cccc6c4C(=O)N(C4CCC(=O)NC4=O)C6=O)C5)CC3)cc2cc1NC(=O)c1cccc(C(F)(F)F)n1 (stereo partly shown) [I-185] | 50 to 100 nM |
| COc1cc2nc([C@H]3CC[C@H](CN4CC5(CCC(CNc6cccc7c6C(=O)N(C6CCC(=O)NC6=O)C7=O)CC5)C4)CC3)oc2cc1NC(=O)c1cccc(C(C)(F)F)n1 (stereo partly shown) [I-292] | 50 to 100 nM |
| COc1cc2nc([C@H]3CC[C@H](CN4CCC5(CC4)CC(Nc4cccc6c4C(=O)N(C4CCC(=O)NC4=O)C6=O)C5)CC3)oc2cc1NC(=O)c1cnn2cccnc12 (stereo partly shown) [I-321] | < 50 nM |
| CC1(C)OC(c2cccc(C(F)(F)F)n2)=Nc2cc3cn([C@H]4CC[C@H](CN5CCC6(CC5)CC(Nc5cccc7c5C(=O)N(C5CCC(=O)NC5=O)C7=O)C6)CC4)nc3cc21 (stereo partly shown) [I-127, 4-[[7-[[4-[8,8-Dimethyl-6-[6-(trifluoromethyl)-2-pyridyl]pyrazolo[3,4-g][3,1]benzoxazin-2-yl]cyclohexyl]methyl]-7-azaspiro[3.5]nonan-2-yl]amino]-2-(2,6-dioxo-3-piperidyl)isoindoline-1,3-dione] | 50 to 100 nM |
| O=C1CCC(N2C(=O)c3cccc(NCCC4CC5(CCN(C[C@H]6CC[C@H](c7nc8cc(N9CCC(CO)CC9)c(NC(=O)c9cccc(C(F)(F)F)n9)cc8o7)CC6)CC5)C4)c3C2=O)C(=O)N1 (stereo partly shown) [I-314] | 100 to 500 nM |
| COc1cc2nn([C@H]3CC[C@H](CN4CCO[C@@H](CCNc5cccc6c5C(=O)N(C5CCC(=O)NC5=O)C6=O)C4)CC3)cc2cc1NC(=O)c1cccc(C(F)(F)F)n1 (stereo partly shown) [I-71] | 50 to 100 nM |
| COc1cc2nn([C@H]3CC[C@H](CN4CCC5(CC4)CC(CCNc4cccc6c4C(=O)N(C4CCC(=O)NC4=O)C6=O)C5)CC3)c(C)c2cc1NC(=O)c1cccc(C(F)(F)F)n1 (stereo partly shown) [I-136] | 50 to 100 nM |
| COc1cc2nn([C@H]3CC[C@H](CN(C)CCCO[C@H]4C[C@H](Nc5ccc6c(c5)C(=O)N(C5CCC(=O)NC5=O)C6=O)C4)CC3)cc2cc1NC(=O)c1cccc(C(F)(F)F)n1 (stereo partly shown) [I-77] | 50 to 100 nM |
| COc1cc2nn([C@H]3CC[C@H](CN4CCC5(CC4)CC(CCNc4cccc6c4C(=O)N(C4CCC(=O)NC4=O)C6=O)C5)CC3)cc2cc1NC(=O)c1cnn2cccnc12 (stereo partly shown) [I-139] | < 50 nM |
| O=C1CCC(N2C(=O)c3cccc(NCCC4CC5(CCN(C[C@H]6CC[C@H](n7cc8cc(NC(=O)c9cccc(C(F)(F)F)n9)c(OC9CC9)cc8n7)CC6)CC5)C4)c3C2=O)C(=O)N1 (stereo partly shown) [I-159] | < 50 nM |
| CC(C)(O)c1cc2nn([C@H]3CC[C@H](CN4CCO[C@@H](CCCNc5cccc6c5C(=O)N(C5CCC(=O)NC5=O)C6=O)C4)CC3)cc2cc1NC(=O)c1cccc(C(F)(F)F)n1 (stereo partly shown) [I-233] | < 50 nM |
| COc1cc2nn([C@H]3CC[C@H](CN4CCO[C@@H](CCCNc5cccc6c5C(=O)N(C5CCC(=O)NC5=O)C6=O)C4)CC3)cc2cc1NC(=O)c1cccc(C(F)(F)F)n1 (stereo partly shown) [I-227] | 50 to 100 nM |
